Patent publication US8394398B2 (Abbott Laboratories, priority 1997, dated 2013)
Read-outs that look alike come from different tables or passages of the source.

Key:
[1] = Phase 1 multiple escalating dose study, QD intravenous infusion for 14 days, safety and pharmacokinetics; format: in vivo, human; conditions: for AUC(0-inf) / Cmax / clearance / Vd / half-life / AUC: human, whole blood; for AUC: Day 14, blood
Experimental: The present study was designed to evaluate the pharmacokinetics of zotarolimus following multiple dosing and to assess its safety while maximizing systemic exposure of healthy subjects. […] The study investigated pharmacokinetics and safety of zotarolimus in a Phase 1, multiple dose-escalation study following multiple intravenous infusions of 200, 400 and 800 μg doses, every day for fourteen consecutive days in healthy subjects.
Phase 1, multiple-escalating dose, double-blind, placebo-controlled, randomized study. Seventy-two subjects equally divided in 3 once-daily (QD) regimens (200, 400 or 800 μg QD with 16 active and 8 placebo per regimen) were administered a 60-minute QD IV infusion of zotarolimus for 14 consecutive days. Blood samples were collected over 24 hours following the first dose, before dosing on days 10, 11, 12, 13, and for 168 hours following Day 14 dose. Urine samples were collected over 24 hours on days 1, 14, 16, 18 and 20. Blood and urine zotarolimus concentrations were determined using a validated LC/MS/MS method. Pharmacokinetic parameters were determined by compartmental analysis. All Day-AUC0-∞ (area under blood concentration-time curve from time 0 to infinity including all 14 doses) was calculated. Dose and time-linearity and achievement of steady-state were evaluated. Fraction of drug eliminated in urine was determined.
Within each group, subjects were equally divided at the two study sites with each site enrolling 12 subjects (zotarolimus, eight subjects; placebo four subjects). The dosing scheme within each dose group is presented below:
Subjects received, under fasting conditions, a single 60-minute daily (QD) intravenous infusion of 200, 400, or 800 μg of zotarolimus or a matching intravenous infusion of placebo for Groups I, II and III, respectively on Study Days 1 through 14. The drug was administered via a syringe pump connected to a y-site device, which also infused 125-150 mL of 5% aqueous dextrose solution (D5W) over 60 minutes. The groups were dosed sequentially with at least 7 days separating the last dose of the previous group and the first dose of the next group during which time safety data from the previous group was analyzed. Dose escalation was dependent on the safety analysis of the lower dose group.
Five (5)-mL blood samples were collected in potassium EDTA containing tubes to evaluate zotarolimus concentrations prior to dosing (0 hour), and at 0.25, 0.5, 1.0, 1 hour 5 min, 1.25, 1.5, 2, 3, 4, 8, 12, 18 and 24 hours after starting infusion on Study Days 1 and 14. Additional samples were collected at 36, 48, 72, 96, 120, 144 and 168 hours after starting infusion on Study Day 14 and before dosing on Days 10, 11, 12 and 13. Urine was collected in containers without preservatives over the following intervals: 0 to 6, 6 to 12, 12 to 18 and 18 to 24 hours after starting the infusion on Study Days 1, 14, 16, 18 and 20.
Blood and urine concentrations of zotarolimus were determined using a validated liquid/liquid extraction HPLC tandem mass spectrometric method (LC-MS/MS). The lower limit of quantification of zotarolimus was 0.20 ng/mL using 0.3 mL blood sample and 0.50 ng/mL using 0.3 mL urine sample.
Safety was evaluated based on adverse event, physical examination, vital signs, ECG, injection site and laboratory tests assessments
The pharmacokinetic parameter values of zotarolimus were estimated for individual subjects using compartmental analysis. Data from the first dose on Study Day 1, the last dose on Study Day 14 and the trough concentrations on Study Days 10, 11, 12 and 13 were simultaneously modeled for each individual subject. […]

human monocytes = experiment: cytokine production by LPS-stimulated human monocytes (ELISA); format: cell-based
Experimental: (§1) Experiments were performed to determine the effects of zotarolimus, sirolimus and dexamethasone on the production of TNFα, IL-6 and MCP-1 by activated human monocytes In addition to monocytes and macrophages two other key cell types are involved in the etiology of restenosis, arterial smooth muscle and endothelial cells. These cells are activated and produce cytokines in response to TNFα. […] The activation of cytokine production by human coronary artery smooth muscle and endothelial cells following TNFα treatment was determined by measuring interleukine-8 (IL-8), MCP-1 and IL-6 production. As shown by the results of the experiments described below, the ability of these compounds to inhibit the production of cytokines supports their use in combination as anti-restenotic agents since these cytokines play a role in the development of restenosis. […] After 24 hours, the supernatants were carefully collected and TNFα, IL-6 and MCP-1 levels determined by ELISA. Primary cultures of human coronary artery endothelial and smooth muscle cells were obtained from Cambrex and maintained as described by the vendor. […] After 24 hours the supernatants were removed and replaced with media containing TNFα (5 ng/ml) in the presence and absence of various concentrations of zotarolimus, dexamethasone or sirolimus. The cells were incubated for 24 hours and the supernatants carefully removed and frozen until measurement. Cytokine levels were measured in the supernatants by sandwich ELISA.

[2] = tested on: human coronary artery endothelial cells (hCaEC); experiment: cytokine production by TNFα-treated human coronary artery endothelial cells (ELISA); format: cell-based; conditions: TNFα (5 ng/ml), 24 hours
Experimental: as §1

CO[C@H]1C[C@@H]2CC[C@@H](C)[C@@](O)(O2)C(=O)C(=O)N2CCCC[C@H]2C(=O)O[C@H]([C@H](C)C[C@@H]2CC[C@H](n3cnnn3)[C@H](OC)C2)CC(=O)[C@H](C)/C=C(\C)[C@@H](O)[C@@H](OC)C(=O)[C@H](C)C[C@H](C)/C=C/C=C/C=C/1C [zotarolimus]
fraction of dose recovered in the urine ([1]; 800 μg QD dose group, within a 24-hour period on Day 1 and Day 14): approximately 0.1%
most common treatment-emergent adverse events ([1]; 200, 400, 800 μg QD IV for 14 days): pain, headache, injection site reaction, dry skin, abdominal pain, diarrhea and rash
V1, range of means over the studied regimens ([1]; 200-800 μg QD IV for 14 days): 11.3 to 13.1 L
steady state for QD dosing reached ([1]; first trough samples measured on Day 10): ≤ 10 days
AUC(0-inf) ([1]; intravenous, 200 μg QD dose group, read-out: median All Day −AUC0-∞): 677 ng·h/mL
AUC(0-inf) ([1]; intravenous, 400 μg QD dose group, read-out: median All Day −AUC0-∞): 1440 ng·h/mL
AUC(0-inf) ([1]; intravenous, 800 μg QD dose group, read-out: median All Day −AUC0-∞): 2400 ng·h/mL
Cmax ([1]; 200 μg QD IV infusion for 14 days, blood, secondary predicted parameter): 11.2 ± 1.1 ng/mL
clearance ([1]; 200 μg QD IV infusion for 14 days, blood, secondary predicted parameter, read-out: CL (converted)): 70 mL/min
Vd ([1]; 200 μg QD IV infusion for 14 days, blood, secondary predicted parameter, read-out: Vss): 92.5 ± 13 L
half-life ([1]; 200 μg QD IV infusion for 14 days, blood, harmonic mean ± pseudo-standard deviation, read-out: t½ (converted)): 24.7 ± 4.6 h
AUC ([1]; 200 μg QD IV infusion, secondary predicted parameter): 49 ± 6.2 ng·h/mL
Cmax ([1]; 400 μg QD IV infusion for 14 days, blood, secondary predicted parameter): 21.4 ± 2.4 ng/mL
clearance ([1]; 400 μg QD IV infusion for 14 days, blood, secondary predicted parameter, read-out: CL (converted)): 66.7 mL/min
Vd ([1]; 400 μg QD IV infusion for 14 days, blood, secondary predicted parameter, read-out: Vss): 112 ± 21.1 L
half-life ([1]; 400 μg QD IV infusion for 14 days, blood, harmonic mean ± pseudo-standard deviation, read-out: t½ (converted)): 31 ± 4.6 h
AUC ([1]; 400 μg QD IV infusion, secondary predicted parameter): 104 ± 19 ng·h/mL
Cmax ([1]; 800 μg QD IV infusion for 14 days, blood, secondary predicted parameter): 38.7 ± 6.3 ng/mL
clearance ([1]; 800 μg QD IV infusion for 14 days, blood, secondary predicted parameter, read-out: CL (converted)): 76.7 mL/min
Vd ([1]; 800 μg QD IV infusion for 14 days, blood, secondary predicted parameter, read-out: Vss): 118 ± 18.7 L
half-life ([1]; 800 μg QD IV infusion for 14 days, blood, harmonic mean ± pseudo-standard deviation, read-out: t½ (converted)): 30 ± 4.1 h
AUC ([1]; 800 μg QD IV infusion, secondary predicted parameter): 180 ± 17.4 ng·h/mL
clearance ([1]; 200-800 μg QD IV for 14 days, read-out: CL, range of means over the studied regimens): 66.7 to 76.7 mL/min
Vd ([1]; 200-800 μg QD IV for 14 days, read-out: Vss, range of means over the studied regimens): 92.5 to 118 L
half-life ([1]; 200-800 μg QD IV for 14 days, read-out: terminal elimination t1/2, range of means over the studied regimens): 24.7 to 31 h
AUC(0-inf) ([1]; 200-800 μg QD IV, time 0 to infinity including all 14 doses, read-out: All Day-AUC0-∞, range over the studied regimens): 677 to 2400 ng·h/mL
dose proportionality and time dependence of pharmacokinetics ([1]; intravenously for 14 consecutive days): dose proportional and time invariant
MCP-1 production by human monocytes in vitro (human monocytes; FIG. 10): dose-dependently inhibit MCP-1 production
production of TNFα and IL-6 by human monocytes (human monocytes; FIGS. 10 and 11): not demonstrated
Maximal Inhibitory Activity, IL-6 (human monocytes; Monocytes, 24 hours): − (− indicates maximal inhibitory activity less than 50% of control)
Maximal Inhibitory Activity, MCP-1 (human monocytes; Monocytes, 24 hours): +++ (+++ indicates maximal inhibitory activity of 75-100% of control)
Maximal Inhibitory Activity, TNF (human monocytes; Monocytes, 24 hours): − (− indicates maximal inhibitory activity less than 50% of control)
Maximal Inhibitory Activity, IL-6 [2]: − (− indicates maximal inhibitory activity less than 50% of control)
Maximal Inhibitory Activity, Il-8 [2]: − (− indicates maximal inhibitory activity less than 50% of control)
Maximal Inhibitory Activity, MCP-1 [2]: − (− indicates maximal inhibitory activity less than 50% of control)
